Measured values published in patent publication US20060121449A1, “Method for selection of compounds which inhibit clonal cell growth and use thereof” (priority 2002, published 2006).
Entries after “also recorded” stand apart in the source; their conditions may differ.

Key:
[1] = test system: polyoma virus transformed BHK21/c13 cells, line S100T1; experiment: Collocation inhibition test: clonal growth in sparsely and densely seeded areas of a cell density gradient of S100T1 cells in soft agar (Exp 13, 17, 19-26); conditions: for Clonal growth, L low density area of cell gradient, High / Clonal growth, L low density area of cell gradient, Low / Effect on cell cloning in soft agar: preliminary results; for Clonal growth, L low density area of cell gradient, High / Clonal growth, L low density area of cell gradient, Low: Exp 13-18, 21-26; for Clonal growth, L low density area of cell gradient, High / Clonal growth, H: high density area of cell gradient, High / Clonal growth, L: low density area of cell gradient, High: high concentration; for Clonal growth, L low density area of cell gradient, Low / Clonal growth, H: high density area of cell gradient, Low / Clonal growth, L: low density area of cell gradient, Low: low concentration; for Effect on cell cloning in soft agar: in words; for Clonal growth, H: high density area of cell gradient, High / Clonal growth, L: low density area of cell gradient, High / Clonal growth, H: high density area of cell gradient, Low / Clonal growth, L: low density area of cell gradient, Low / Clonal growth, H: high density area of cell gradient, Medium / Clonal growth, L: low density area of cell gradient, Medium: 4-OH-OPB analogues, S100T1 in soft agar; for Clonal growth, H: high density area of cell gradient, Medium / Clonal growth, L: low density area of cell gradient, Medium: medium concentration; for Clonal growth read on the 3rd day after seeding / Clonal growth read on the 6th day after seeding: Exp 17;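 as to Clonal growth, L low density area of cell gradient, High: grades rise with clonal growth and minus or plus-minus means none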;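 as to Clonal growth, L low density area of cell gradient, Low: grades rise with clonal growth and minus or plus-minus means none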;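 as to all read-outs here: soft agar cultures in 24-well plates with a cell density gradient in the top layer, compounds applied from DMSO stocks, clonal growth scored in sparse versus dense areas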
Protocol: The cells should be grown in a top agar layer to avoid growth on the bottom surface. […] Both densely seeded and sparsely seeded areas were photographed.
Cells: The polyoma virus transformed offspring of BHK21/c13, S100T1, was grown on 75 cm^2 flasks on Eagles medium with 5% foetal calf serum. […] Foetal calf serum (0.7 ml) was added to each harvest. After low speed centrifugation the supernatant was discarded and the cells were dispersed in 1 ml FBS.
The concentration of ultra low gelling temperature agarose (Sigma) of the top agar layer with cells was also 0.8%. […] The addition of cells was performed at the same side of the wells in order to create similar cell density gradients. Finally the top layer agar was consolidated in the refrigerator.
After that it was incubated at 37 degrees in 5% CO2 atmosphere.
Agar cultures were prepared in Falcon 24 well tissue culture plate. Each well contained two agar layers of 0.3 ml.
Agar cultures were prepared in wells of Falcon 24 well tissue culture plate. Each contained two agar layers of 0.3 ml. […] The medium contained Eagles MEM and 10% foetal bovine serum (FBS).
The compounds were first solved in DMSO in 20 mM concentration and then diluted in medium. The top layer needed 60-90 minutes in the refrigerator for solidification before incubation in 37° C. with 5% CO2 atmosphere.
In this experiment the inhibitor was added to the bottom layer in order to get an easier way for making the cell density gradient. One side of the Falcon 24 well plate was elevated 12 degrees in the refrigerator for 60-90 minutes to solidify the bottom layer in an oblique position When then solidifying the cell containing top soft agar layer in horizontal position, the cell gradient constantly became good across the well. […] Another 90 minutes were spent in the refrigerator to consolidate the soft agar layer with cells in a horizontal position. Both layers contained 0.8% agarose, Eagles MEM and 10% FBS.
Tilting the plate 12 degrees when solidifying the bottom layer with the drug and casting the top layer with cells horizontally made a stable cell gradient.
The indicated compounds were added to soft agar cultures of the polyoma virus transformed cell line S100T1 of BHK21/c13 cells (Table 1). Agar cultures were prepared in wells of a Falcon 24 well tissue culture plate. The wells contained two agar layers of 0.3 ml. […] The bottom medium was identical, but without cells.
The compounds were first solved in DMSO in 20 mM concentration and then diluted in bottom medium. The agar layers needed 60-90 minutes in the refrigerator for consolidation before incubation at 37° C. in 5% CO2 atmosphere.

[2] = test system: polyoma virus transformed BHK21/c13 cells, clone S100T1; experiment: Clonal test: clonal growth of S100T1 cells in soft agar (Exp 2, 4, 6, 15, 16); assay type: cell-based, hamster; conditions: for Significance of results: Exp 16, read after 14 days, ca. 223 μM; for Colony inhibiting activity for dosage within a range that might be therapeutic: Exp 16, about 40000 S100T1 cells/well; for Clonal growth: Exp 15, plate read the 5th day; for Effect on clonal growth at 500 μM: DMSO toxicity might interfere
Protocol: The clonal test comprises: • 1. seeding cells in soft agar optionally containing growth factor(s); • 2. handling or incubation of special gels (e.g. ultra low gelling temperature agarose), including the production of cell density gradients. • 3. incubating in suitable temperature and atmosphere and; • 4. regular monitoring of the cells and development of clones.
The clonal test can be directed in fluid medium or in soft agar medium. Usually only transformed cells will form clones in soft agar.
After seeding and mixing, the tubes were placed in the refrigerator for about 1 hour to consolidate the ultra low melting point agarose.
120000 S100T1 cells of a polyoma virus transformed BHK21/c13 cell line, were seeded in 1 ml soft agar medium in Falcon 50 ml centrifuge tubes. […] On the top of the agar layer 0.5 ml fluid medium was added.
Agar cultures were prepared in wells of 24 well Falcon tissue culture plate. […] Insulin (Actrapid, Novo) was added in a concentration of 0.1 i.u./ml to BHK21/c13 cell cultures only.
The cells were all single cells. Each well received 32000 cells (Table 4). Plate: 24 wells Falcon tissue culture plate received a bottom layer composed as in Table 3:
The cells were all single cells.
The wells contained two layers, each of 0.3 ml agar.
The agarose was added to double distilled water and solved by heating in micro oven.

[3] = test system: BHK21/c13 (normal baby hamster kidney cells); conditions: Tjøtta E. (1968); cited from earlier work
[4] = test system: spleen antibody producing cells against sheep red cells; conditions: from the literature; cited from earlier work
[5] = Exp 15, 32000 S100T1 cells/well
[6] = High: #1 Colchicine 1, #2 Podophyllotoxin 3, #3 Etoposide 200, #4 4-OH—OPB 6.7 μM in wells, #5 DMSO 29.2 μl
[7] = Summary Table 3 of analogue tests (experiments 22-25), H (high cell density), High concentration
[8] = Summary Table 3 of analogue tests (experiments 22-25), H (high cell density), Low concentration
[9] = Summary Table 3 of analogue tests (experiments 22-25), H (high cell density), Medium concentration
[10] = Summary Table 3 of analogue tests (experiments 22-25), L (low cell density), High concentration
[11] = Summary Table 3 of analogue tests (experiments 22-25), L (low cell density), Low concentration
[12] = Exp 15, 5th day, High conc., μM in wells: No 1 (4-OH—OPB) 20, 2 (Colchicine) 0.1, 3 (Diphenylhydantoin) 100, 4 (Podophyllotoxin) 0.3, 5 (Piroxicam) 50, 6 (Diclofenak) 100, ” = as line above
[13] = Exp 15, 5th day, Low conc., μM in wells: No 1 (4-OH—OPB) 2, 2 (Colchicine) 0.01, 3 (Diphenylhydantoin) 10, 4 (Podophyllotoxin) 0.03, 5 (Piroxicam) 5, 6 (Diclofenak) 10, 7 (Ibuprofen) 100, 8 (Naproxen) 50, 9 (Acetylsalicylic acid) 100, ” = as line above

Molecule: CC(=O)Oc1ccccc1C(=O)O [Acetylsalicylic acid]
- Clonal growth, L low density area of cell gradient, High [1]: ((+))
- Clonal growth, L low density area of cell gradient, Low [1]: (+)
- Effect on cell cloning in soft agar [1]: Possible inhibition of clonal growth
- Effect on clonal growth at 100 μM [2, 5]: possibly inhibited significantly, but not completely
- Effect on clonal growth at 1000 μM ([2]; Exp 15, 32000 S100T1 cells/well, 30 μl DMSO in the well might be toxic): the inhibition is complete
- Significance of results ([2]; Acetylsalicylic acid No 10): probable
- Colony inhibiting activity for dosage within a range that might be therapeutic [2]: probably had a colony inhibiting activity
- Significance ([2]; Exp 16 day 14, Acetylsalicylic acid No 10, 215 μM): probable
- Growth ([2]; Exp 16 day 14, Acetylsalicylic acid No 10, 215 μM in wells): (+))
- Growth ([2]; Exp 16 day 14, Acetylsalicylic acid No 10, 464 μM in wells): (+))
- Significance ([2]; Exp 16 day 14, Acetylsalicylic acid No 10, 464 μM, doubtful because the solvent DMSO might be inhibiting): doubtful*
- Significance ([2]; Exp 16 day 21, Acetylsalicylic acid No 10, 215 μM): possible
- Growth ([2]; Exp 16 day 21, Acetylsalicylic acid No 10, 215 μM in wells): (+)
- Growth ([2]; Exp 16 day 21, Acetylsalicylic acid No 10, 464 μM in wells): (+))
- Significance ([2]; Exp 16 day 21, Acetylsalicylic acid No 10, 464 μM, *see conclusion (DMSO)): doubtful*
- Anti-clonal effect, summary of Exp 15 ([2]; S100T1 in soft agar): showed possible clonal inhibition at low

Molecule: Insulin: Insulin Actrapid (Novo), 0.1 i.u./ml, growth factor
- Stimulation of clonal growth in soft agar culture [3]: stimulate clonal growth of normal, but not transformed cells

Molecule: CCCCC(=O)C(=O)Nc1ccccc1 [#3, 2-oxo-hexanoic acid phenylamide]
- Clonal growth, H: high density area of cell gradient, High [1]: ++
- Clonal growth, L: low density area of cell gradient, High [1]: ++
- Clonal growth, H: high density area of cell gradient, Low [1]: ++(+)
- Clonal growth, L: low density area of cell gradient, Low [1]: ++(+)
- Clonal growth, H: high density area of cell gradient, Medium [1]: ++(+)
- Clonal growth, L: low density area of cell gradient, Medium [1]: ++(+)
- Clonal growth read on the 3rd day after seeding [1, 6]: (+)
- Clonal growth read on the 6th day after seeding [1, 6]: −
- Clonal growth read on the 6th day after seeding ([1]; Low: #1 Colchicine 0.1, #2 Podophyllotoxin 0.3, #3 Etoposide 20, #4 4-OH—OPB 0.67 μM in wells, #5 DMSO 1.16 μl): +
- Clonal growth read on the 3rd day after seeding ([1]; Medium: #1 Colchicine 0.3, #2 Podophyllotoxin 0.9, #3 Etoposide 60, #4 4-OH—OPB 2 μM in wells, #5 DMSO 6.8 μl): (+)
- Effect on growth ([1]; Exp 23, 180000 S100T1 cells/well): did not show significant growth inhibition at all
- Clonal growth ([1]; Experiment 23, A (area with high cell density), High concentration, 48 hours): ++
- Clonal growth ([1]; Experiment 23, A (area with high cell density), Low concentration, 48 hours): ++(+)
- Clonal growth ([1]; Experiment 23, A (area with high cell density), Medium concentration, 48 hours): ++(+)
- Clonal growth ([1]; Experiment 23, B (area with low cell density), High concentration, 48 hours): ++
- Clonal growth ([1]; Experiment 23, B (area with low cell density), Low concentration, 48 hours): ++(+)
- Clonal growth ([1]; Experiment 23, B (area with low cell density), Medium concentration, 48 hours): ++(+)
- Clonal growth [1, 7]: ++
- Clonal growth [1, 8]: ++(+)
- Clonal growth [1, 9]: ++(+)
- Clonal growth [1, 10]: ++
- Clonal growth [1, 11]: ++(+)
- Clonal growth ([1]; Summary Table 3 of analogue tests (experiments 22-25), L (low cell density), Medium concentration): ++(+)
- Significance [2, 12]: ”
- Significance [2, 13]: ”
- Clonal growth ([2]; Low conc., μM in wells: No 1 (4-OH—OPB) 2, 2 (Colchicine) 0.01, 3 (Diphenylhydantoin) 10, 4 (Podophyllotoxin) 0.03, 5 (Piroxicam) 5, 6 (Diclofenak) 10, 7 (Ibuprofen) 100, 8 (Naproxen) 50, 9 (Acetylsalicylic acid) 100): ++

Molecule: CN(C)N [1-1-dimethylhydrazine]
- Effect on development of plaques in Jerne's test [4]: enhances development of plaques

Molecule: O=C1N(c2ccccc2)N(c2ccccc2)C(=O)C1(O)CC[S+]([O-])c1ccccc1 (stereo not drawn) [#6, 1,2-diphenyl-4-hydroxy-4-[2-(phenylsulfinyl)ethyl]-3,5-pyrazolidinedione]
- Clonal growth, H: high density area of cell gradient, High [1]: ++
- Clonal growth, L: low density area of cell gradient, High [1]: −
- Clonal growth, H: high density area of cell gradient, Low [1]: ++
- Clonal growth, L: low density area of cell gradient, Low [1]: ++
- Clonal growth, H: high density area of cell gradient, Medium [1]: ++
- Clonal growth, L: low density area of cell gradient, Medium [1]: ((+))
- Effect at low concentration ([1]; Exp 22): no effect was observed
- Inhibition of clonal growth of sparsely seeded cells ([1]; Exp 22, 117000 S100T1 cells/well): best inhibitor of clonal growth of sparsely seeded cells
- Clonal growth ([1]; Experiment 22, H: area with high cell density, High concentration): ++
- Clonal growth ([1]; Experiment 22, H: area with high cell density, Low concentration): ++
- Clonal growth ([1]; Experiment 22, H: area with high cell density, Medium concentration): ++
- Clonal growth ([1]; Experiment 22, L: area with low cell density, High concentration): −
- Clonal growth ([1]; Experiment 22, L: area with low cell density, Low concentration): ++
- Clonal growth [1, 7]: ++
- Clonal growth [1, 8]: ++
- Clonal growth [1, 9]: ++
- Clonal growth [1, 10]: −
- Clonal growth [1, 11]: ++
- Clonal inhibition by 4-OH-OPB analogues, summary of Exp 22-25 ([1]; sparsely seeded areas while densely seeded areas of the same culture showed significant growth): complete inhibition of growth in sparsely seeded areas
- Significance [2, 12]: ”
- Significance [2, 13]: probably*
- Clonal growth ([2]; High conc., μM in wells: No 1 (4-OH—OPB) 20, 2 (Colchicine) 0.1, 3 (Diphenylhydantoin) 100, 4 (Podophyllotoxin) 0.3, 5 (Piroxicam) 50, 6 (Diclofenak) 100, 7 (Ibuprofen) 1000, 8 (Naproxen) 500, 9 (Acetylsalicylic acid) 1000): ++

Molecule: O=C(O)Cc1ccccc1Nc1c(Cl)cccc1Cl [Diclofenac, reference compound]
- Clonal growth, L low density area of cell gradient, High [1]: ++
- Clonal growth, L low density area of cell gradient, Low [1]: ++(+)
- Effect on cell cloning in soft agar [1]: A possible increase of clonal growth
- Effect on clonal growth at 10 μM [2, 5]: probable significant increase in clonal growth
- Effect on clonal growth at 10-100 μM [2, 5]: no significant inhibition
- Anti-clonal effect, summary of Exp 15 ([2]; S100T1 in soft agar): increased clonal growth at low concentration

Molecule: COc1ccc2cc([C@H](C)C(=O)O)ccc2c1 [Naproxen]
- Effect on cell cloning in soft agar [1]: Clonal inhibition possible
- Effect on clonal growth at 500 μM [2, 5]: inhibited significantly
- Effect on clonal growth at 500 μM ([2]; Exp 15, 32000 S100T1 cells/well, listed as Naproxea): probably inhibited significantly
- Significance of results ([2]; Naproxen No 9): possible
- Colony inhibiting activity for dosage within a range that might be therapeutic [2]: probably had a colony inhibiting activity; also recorded: the same activity possibly existed
- Significance ([2]; Exp 16 day 14, Naproxen No 9, 108 μM): doubtful
- Growth ([2]; Exp 16 day 14, Naproxen No 9, 108 μM in wells): (+
- Significance ([2]; Exp 16 day 14, Naproxen No 9, 232 μM): possible*
- Growth ([2]; Exp 16 day 14, Naproxen No 9, 232 μM in wells): (+)
- Significance ([2]; Exp 16 day 21, Naproxen No 9, 108 μM): doubtful
- Growth ([2]; Exp 16 day 21, Naproxen No 9, 108 μM in wells): (+
- Significance ([2]; Exp 16 day 21, Naproxen No 9, 232 μM): possible*
- Growth ([2]; Exp 16 day 21, Naproxen No 9, 232 μM in wells): (+)
- Anti-clonal effect, summary of Exp 15 ([2]; S100T1 in soft agar): showed possible clonal inhibition at low
- Anti-clonal effect, summary of Exp 16 ([2]; S100T1 in soft agar): Ibuprofen and Naproxen possibly inhibited and Acetyl

Molecule: CN1C(C(=O)Nc2ccccn2)=C(O)c2ccccc2S1(=O)=O [Piroxicam]
- Clonal growth, L low density area of cell gradient, High [1]: +
- Clonal growth, L low density area of cell gradient, Low [1]: ++
- Effect on cell cloning in soft agar [1]: Clonal inhibition possible
- Effect on clonal growth at 50 μM [2, 5]: inhibited doubtfully; also recorded: possibly inhibited significantly
- Effect on clonal growth at 5-50 μM [2, 5]: did not inhibit clonal growth significantly
- Anti-clonal effect, summary of Exp 15 ([2]; S100T1 in soft agar): Piroxicam inhibited less, but similarly
